Assays:
Plasma Stability = assay type: in vitro ADME, human
In short: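 Compounds incubated at 1 μM in fresh human plasma for 1 hour at 37° C, then protein-precipitated with acetonitrile/formic acid containing internal standard. Remaining parent measured by LC-MS/MS in triplicate, expressed as percent of control remaining.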

[1] = Stability in Simulated Intestinal Fluid (SIF); assay type: in vitro ADME; design: key: % parent compound remaining relative to 0-minute sample
In short: (§1)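 Compound at 2 μg/mL final was incubated at 37° C with orbital shaking in SGF containing pepsin (pH 1.2) or SIF containing pancreatin (pH 6.8), sampled from 0 to 60 minutes. Parent remaining was measured by LC-MS/MS relative to the 0-minute sample; half-life came from ln(% remaining) versus time when enough points existed.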

[2] = Caco-2 Permeability Assay; assay type: in vitro ADME, human; conditions: human
In short: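 Caco-2 monolayers cultured 21 days (TEER >600 […]); test article at 10 μM in HBSS/HEPES pH 7.4 transport medium, dosed apical or basolateral, ±Pgp inhibitor. Incubated 90 min at 37 °C; both compartments quantified by LC-MS/MS. Papp (A→B, B→A), efflux ratio and % recovery calculated.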

[3] = Stability in Simulated Gastric Fluid (SGF); assay type: in vitro ADME; design: key: % parent compound remaining relative to 0-minute sample
In short: as §1

[4] = Caco-2, pH 7.4, Caco-2 monolayer
[5] = % @ 1 h (remaining) in human plasma
[6] = % @ 1 h (remaining) in simulated intestinal fluid
[7] = % @ 1 h (remaining) in simulated gastric fluid
[8] = % remaining at 1 h in human plasma, the 15th table
[9] = % remaining at 1 h in simulated intestinal fluid, the 15th table
[10] = Caco-2, pH 7.4, Caco-2 monolayer, the 15th table
[11] = % remaining at 1 h in simulated gastric fluid, the 15th table
[12] = % remaining at 1 h, human plasma, 1 μM, 37° C.
[13] = % remaining at 1 h, SIF with pancreatin pH 6.8, 2 μg/mL, 37° C.
[14] = Caco-2, pH 7.4, donor 10 μM, 90 minutes, 37° C., direction not given
[15] = % remaining at 1 h, SGF with pepsin pH 1.2, 2 μg/mL, 37° C.
[16] = bare number, no % and no time given
[17] = % remaining at 1 h in human plasma
[18] = % remaining at 1 h in simulated intestinal fluid
[19] = % remaining at 1 h in simulated gastric fluid
[20] = bare number, unit or time not given, the 15th table Examples 204-207

With CC(C)OCCn1c(=S)[nH]c(=O)c2c1ccn2COC(=O)Oc1cccc(F)c1 [Example 234] the “human Plasma stability” value (Plasma Stability; human plasma, at 1 h) was 2% remaining, the SIF ([1]; simulated intestinal fluid, at 1 h) was 8% remaining and the Papp at 90 min, 10 µM [2, 4] was less than 0.33 ×10⁻⁶ cm/s. It also gave an SGF ([3]; simulated gastric fluid, at 1 h) of 34% remaining.
For CC(C)OCCn1c(SCOC(=O)N(C)C)nc(=O)c2[nH]ccc21.O=C(O)C(F)(F)F [Example 164], the “human Plasma stability” value (Plasma Stability; [5]) was 98% @ 1 h, the SIF [1, 6] was 99% @ 1 h and the Papp at 90 min, 10 µM [2, 4] was 4.2 ×10⁻⁶ cm/s. The SGF [3, 7] was 100% @ 1 h.
With CC(C)OCCn1c(=S)[nH]c(=O)c2c1ccn2COC(=O)[C@@H](C)N.O=C(O)C(F)(F)F [Example 292, trifluoroacetic acid {4-oxo-1-[2-(propan-2-yloxy)ethyl]-2-sulfanylidene-1H,2H,3H,4H,5H-pyrrolo[3,2-d]pyrimidin-5-yl}methyl (2R)-2-aminopropanoate] the “human Plasma stability” value (Plasma Stability; % remaining @ 1 h) was 20% @ 1 h, the SIF ([1]; % remaining @ 1 h) was 7% @ 1 h and the Papp at 90 min, 10 µM ([2]; Caco-2, pH 7.4) was less than 1.06 ×10⁻⁶ cm/s. The SGF ([3]; % remaining @ 1 h) was 99% @ 1 h.
With CC(C)C[C@@H](N)C(=O)OCn1ccc2c1c(=O)n(CO)c(=S)n2CCOC(C)C.O=C(O)C(F)(F)F [Example 327, trifluoroacetic acid [3-(hydroxymethyl)-4-oxo-1-[2-(propan-2-yloxy)ethyl]-2-sulfanylidene-1H,2H,3H,4H,5H-pyrrolo[3,2-d]pyrimidin-5-yl]methyl (2R)-2-amino-4-methylpentanoate] the “human Plasma stability” value (Plasma Stability; % remaining @ 1 h) was 21%@ 1 h, the SIF ([1]; % remaining @ 1 h) was 49%@ 1 h and the Papp at 90 min, 10 µM ([2]; Caco-2, pH 7.4) was less than 1.03 ×10⁻⁶ cm/s. For the same molecule, the SGF ([3]; % remaining @ 1 h) was 100%@ 1 h.
With COC(=O)OCSc1nc(=O)c2[nH]ccc2n1CCOC(C)C [Example 200] the “human Plasma stability” value (Plasma Stability; [8]) was 2% remaining, the SIF [1, 9] was 75% remaining and the Papp at 90 min, 10 µM [2, 10] was 9.76 ×10⁻⁶ cm/s. For the same molecule, the SGF [3, 11] was 100% remaining.
With CC(C)CN(C)C(=O)OCSc1nc(=O)c2[nH]ccc2n1CCOC(C)C [Example 172] the “human Plasma stability” value (Plasma Stability; [5]) was 98% @ 1 h, the SIF [1, 6] was 95% @ 1 h and the Papp at 90 min, 10 µM [2, 4] was 23.7 ×10⁻⁶ cm/s. For the same molecule, the SGF [3, 7] was 100% @ 1 h.
For CC(C)OCCn1c(=S)[nH]c(=O)c2c1ccn2COC(=O)CCCCNC(=O)OC(C)(C)C [Example 7, {4-oxo-1-[2-(propan-2-yloxy)ethyl]-2-sulfanylidene-1H,2H,3H,4H,5H-pyrrolo[3,2-d]pyrimidin-5-yl}methyl 5-{[(tert-butoxy)carbonyl]amino}pentanoate], the “human Plasma stability” value (Plasma Stability; [12]) was 4%, the SIF [1, 13] was 40% and the Papp at 90 min, 10 µM [2, 14] was 14.7 ×10⁻⁶ cm/s. For the same molecule, the SGF [3, 15] was 66%.
For CC(C)CNC(=O)OCSc1nc(=O)c2c(ccn2COC(=O)NCC(C)C)n1CCOC(C)C [Example 188], the “human Plasma stability” value (Plasma Stability; [8]) was 99% @ 1 h, the SIF [1, 9] was 97% @ 1 h and the Papp at 90 min, 10 µM [2, 10] was 11.7 ×10⁻⁶ cm/s. The SGF [3, 11] was 98% @ 1 h.
In the case of CC(C)OCCn1c(SCOC(=O)N(C)c2ccccc2)nc(=O)c2[nH]ccc21 [Example 209, ({4-oxo-1-[2-(propan-2-yloxy)ethyl]-1H,4H,5H-pyrrolo[3,2-d]pyrimidin-2-yl}sulfanyl)methyl N-methyl-N-phenylcarbamate], the “human Plasma stability” value (Plasma Stability; [12]) is reported as 97% remaining, the SIF [1, 13] is reported as 99% remaining and the Papp at 90 min, 10 µM [2, 14] is reported as 16.1 ×10⁻⁶ cm/s. The SGF [3, 15] was 99% remaining.
In the case of CC(C)OCCn1c(SCOC(=O)N(CC(F)(F)F)CC(F)(F)F)nc(=O)c2[nH]ccc21 [Example 96, ({4-oxo-1-[2-(propan-2-yloxy)ethyl]-1H,4H,5H-pyrrolo[3,2-d]pyrimidin-2-yl}sulfanyl)methyl N,N-bis(2,2,2-trifluoroethyl)carbamate], the “human Plasma stability” value (Plasma Stability; [12]) is reported as 98% remaining, the SIF [1, 16] is reported as 97 and the Papp at 90 min, 10 µM [2, 14] is reported as 20.3 ×10⁻⁶ cm/s. It also gave an SGF [3, 16] of 98.
With CC(C)OCCn1c(=S)[nH]c(=O)c2c1ccn2COC(=O)CCNC(=O)[C@@H]1CCCN1C(N)=O.O=C(O)C(F)(F)F [Example 62] the “human Plasma stability” value (Plasma Stability; [17]) was 91% remaining, the SIF [1, 18] was 99% remaining and the Papp at 90 min, 10 µM [2, 4] was 0.162 ×10⁻⁶ cm/s. The SGF [3, 19] was 99% remaining.
In the case of CC[C@H](C)[C@H](NC(=O)OC(C)(C)C)C(=O)NCCC(=O)OCn1ccc2c1c(=O)[nH]c(=S)n2CCOC(C)C [Example 34], the “human Plasma stability” value (Plasma Stability; [17]) is reported as 93% remaining, the SIF [1, 18] is reported as 90% remaining and the Papp at 90 min, 10 µM [2, 4] is reported as 10.7 ×10⁻⁶ cm/s. It also gave an SGF [3, 19] of 85% remaining.
With CCCCCCCCOC(=O)OCSc1nc(=O)c2[nH]ccc2n1CCOC(C)C [Example 206] the “human Plasma stability” value (Plasma Stability; [8]) was 99% remaining, the SIF [1, 20] was 1 and the Papp at 90 min, 10 µM [2, 10] was 0.138 ×10⁻⁶ cm/s. For the same molecule, the SGF [3, 20] was 91.
With CC(C)OCCn1c(SCOC(=O)N(C)CCc2ccccc2)nc(=O)c2c1ccn2COC(=O)N(C)CCc1ccccc1.O=C(O)C(F)(F)F [Example 176] the “human Plasma stability” value (Plasma Stability; [5]) was 99% @ 1 h, the SIF [1, 6] was 100% @ 1 h and the Papp at 90 min, 10 µM [2, 4] was 40.4 ×10⁻⁶ cm/s. The SGF [3, 7] was 86% @ 1 h.
For COC(=O)N1CCCC1C(=O)NCCC(=O)OCn1ccc2c1c(=O)[nH]c(=S)n2CCOC(C)C.O=C(O)C(F)(F)F (stereo not shown) [Example 60], the “human Plasma stability” value (Plasma Stability; [17]) was 37% remaining, the SIF [1, 18] was 88% remaining and the Papp at 90 min, 10 µM [2, 4] was 0.611 ×10⁻⁶ cm/s. For the same molecule, the SGF [3, 19] was 99% remaining.
In the case of CC[C@H](C)[C@H](N)C(=O)NCCCCC(=O)OCn1ccc2c1c(=O)[nH]c(=S)n2CCOC(C)C.O=C(O)C(F)(F)F [Example 37], the “human Plasma stability” value (Plasma Stability; [17]) is reported as 1% remaining, the SIF [1, 18] is reported as 89% remaining and the Papp at 90 min, 10 µM [2, 4] is reported as 1.09 ×10⁻⁶ cm/s. For the same molecule, the SGF [3, 19] was 88% remaining.
With CC(C)OCCn1c(SCOC(=O)N(C)C(C)(C)C)nc(=O)c2[nH]ccc21.O=C(O)C(F)(F)F [Example 167] the “human Plasma stability” value (Plasma Stability; [5]) was 98% @ 1 h, the SIF [1, 6] was 99% @ 1 h and the Papp at 90 min, 10 µM [2, 4] was 17.8 ×10⁻⁶ cm/s. It also gave an SGF [3, 7] of 99% @ 1 h.
For CC(C)OCCn1c(=S)n(COC(=O)C2CCN(C(=O)OC(C)(C)C)CC2)c(=O)c2c1ccn2COC(=O)CCC(=O)OC(C)(C)C [Example 132], the “human Plasma stability” value (Plasma Stability; [17]) was 11% remaining, the SIF [1, 18] was 71% remaining and the Papp at 90 min, 10 µM [2, 4] was 4.29 ×10⁻⁶ cm/s. It also gave an SGF [3, 19] of 9% remaining.
For COC(=O)[C@H](CCCCNC(=O)OC(C)(C)C)NC(=O)OCn1ccc2c1c(=O)[nH]c(=S)n2CCOC(C)C [Example 101, methyl (2S)-6-{[(tert-butoxy)carbonyl]amino}-2-{[{{4-oxo-1-[2-(propan-2-yloxy)ethyl]-2-sulfanylidene-1H,2H,3H,4H,5H-pyrrolo[3,2-d]pyrimidin-5-yl}methoxy)carbonyl]amino}hexanoate], the “human Plasma stability” value (Plasma Stability; [12]) was 97%, the SIF [1, 13] was 96% and the Papp at 90 min, 10 µM ([2]; Caco-2, pH 7.4, no unit printed at the place (tables the 9th table and the 10th table have no head)) was 1.46 ×10⁻⁶ cm/s. It also gave an SGF [3, 15] of 75%.
In the case of CC(C)OCCn1c(SCOC(=O)CCCOC(=O)[C@@H](Cc2ccccc2)NC(=O)OC(C)(C)C)nc(=O)c2c1ccn2COC(=O)CCCOC(=O)[C@@H](Cc1ccccc1)NC(=O)OC(C)(C)C [Example 363, [(5-{[(4-{[(2R)-2-{[(tert-butoxy)carbonyl]amino}-3-phenylpropanoyl]oxy}butanoyl)oxy]methyl}-4-oxo-1-[2-(propan-2-yloxy)ethyl]-1H,4H,5H-pyrrolo[3,2-d]pyrimidin-2-yl)sulfanyl]methyl 4-{[(2R)-2-{[(tert-butoxy)carbonyl]amino}-3-phenylpropanoyl]oxy}butanoate], the “human Plasma stability” value (Plasma Stability; human plasma, remaining at 1 h) is reported as 42% remaining, the SIF ([1]; simulated intestinal fluid, remaining at 1 h) is reported as 18% remaining and the Papp at 90 min, 10 µM [2, 4] is reported as 1.63 ×10⁻⁶ cm/s. It also gave an SGF ([3]; simulated gastric fluid, remaining at 1 h) of 97% remaining.
In the case of CC(C)OCCn1c(=S)[nH]c(=O)c2c1ccn2C(=O)Nc1ccccc1 [Example 227], the “human Plasma stability” value (Plasma Stability; % remaining at 1 h in human plasma, the 17th table) is reported as 99% remaining, the SIF ([1]; % remaining at 1 h in simulated intestinal fluid, the 17th table) is reported as 95% remaining and the Papp at 90 min, 10 µM ([2]; Caco-2, pH 7.4, Caco-2 monolayer, the 17th table) is reported as 1.67 ×10⁻⁶ cm/s. The SGF ([3]; % remaining at 1 h in simulated gastric fluid, the 17th table) was 100% remaining.
In the case of CC(C)OCCn1c(=S)[nH]c(=O)c2c1ccn2COC(=O)CCNC(=O)CN(C)C(=O)OC(C)(C)C.O=C(O)C(F)(F)F [Example 54], the “human Plasma stability” value (Plasma Stability; [17]) is reported as 74% remaining, the SIF [1, 18] is reported as 87% remaining and the Papp at 90 min, 10 µM [2, 4] is reported as 3.14 ×10⁻⁶ cm/s. The SGF [3, 19] was 93% remaining.
